From ChEMBL document CHEMBL5154914, “Discovery of Pentacyclic Triterpenoid PROTACs as a Class of Effective Hemagglutinin Protein Degraders” (J Med Chem, 2022)
The source made the active and inactive calls. No cut-off for these calls is given here.

Key:
[1] = biological target: T1, von Hippel-Lindau disease tumor suppressor/Hemagglutinin (Homo sapiens, UniProt P03452+P40337); experiment: Protac activity at VHL (unknown origin)/influenza A hemagglutinin transfected in HEK293T cells assessed as degradation of hemagglutinin at 33 uM incubated for 24 hrs by Western blot analysis relative to control; type: cell-based
Target sequence in this assay (P03452 whole entry, looked up): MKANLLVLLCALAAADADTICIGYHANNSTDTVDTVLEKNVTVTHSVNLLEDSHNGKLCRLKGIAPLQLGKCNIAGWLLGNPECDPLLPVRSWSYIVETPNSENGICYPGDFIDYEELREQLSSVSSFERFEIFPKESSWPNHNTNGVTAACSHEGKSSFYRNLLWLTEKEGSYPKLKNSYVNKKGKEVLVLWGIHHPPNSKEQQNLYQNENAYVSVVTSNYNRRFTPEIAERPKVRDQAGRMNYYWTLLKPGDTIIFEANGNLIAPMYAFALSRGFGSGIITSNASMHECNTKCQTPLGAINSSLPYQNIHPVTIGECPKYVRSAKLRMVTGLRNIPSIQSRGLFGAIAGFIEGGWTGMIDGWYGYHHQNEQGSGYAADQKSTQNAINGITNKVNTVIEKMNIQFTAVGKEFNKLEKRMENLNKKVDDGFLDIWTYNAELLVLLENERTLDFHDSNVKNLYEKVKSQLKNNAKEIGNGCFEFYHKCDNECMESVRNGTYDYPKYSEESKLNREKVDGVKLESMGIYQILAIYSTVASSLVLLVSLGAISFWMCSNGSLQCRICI
Target sequence in this assay (P40337 whole entry, looked up): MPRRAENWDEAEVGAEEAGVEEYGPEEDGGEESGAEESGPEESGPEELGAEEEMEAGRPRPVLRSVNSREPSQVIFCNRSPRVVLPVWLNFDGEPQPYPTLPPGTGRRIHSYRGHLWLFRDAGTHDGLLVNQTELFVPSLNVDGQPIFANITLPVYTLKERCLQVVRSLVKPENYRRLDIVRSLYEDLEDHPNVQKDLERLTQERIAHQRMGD

[2] = biological target: T1, von Hippel-Lindau disease tumor suppressor/Hemagglutinin; experiment: Protac activity at VHL (unknown origin)/influenza A hemagglutinin transfected in HEK293T cells assessed as degradation of hemagglutinin incubated for 12 hrs by Western blot analysis; type: cell-based; conditions: dose 0.39-25 µM, DDE = dose-dependent effect
Target sequence in this assay (P03452 whole entry, looked up): as the sequence (P03452 whole entry, looked up) above
Target sequence in this assay (P40337 whole entry, looked up): as the sequence (P40337 whole entry, looked up) above

[3] = biological target: T1, von Hippel-Lindau disease tumor suppressor/Hemagglutinin; experiment: Protac activity at VHL (unknown origin)/influenza A hemagglutinin transfected in HEK293T cells assessed as degradation of hemagglutinin incubated for 24 hrs by Western blot analysis; type: cell-based; conditions: dose 0.03-33.3 µM, DDE = dose-dependent effect
Target sequence in this assay (P03452 whole entry, looked up): as the sequence (P03452 whole entry, looked up) above
Target sequence in this assay (P40337 whole entry, looked up): as the sequence (P40337 whole entry, looked up) above

[4] = biological target: T2, Protein cereblon/Hemagglutinin (Influenza A virus) (UniProt B4URE7+Q96SW2); experiment: Protac activity at CRBN (unknown origin)/Influenza A hemagglutinin transfected in HEK293T cells assessed as induction of hemagglutinin degradation at 0.78 uM incubated for 24 hrs by Western blot analysis relative to control; type: cell-based
[5] = biological target: T2, Protein cereblon/Hemagglutinin (Influenza A virus); experiment: Protac activity at CRBN (unknown origin)/Influenza A hemagglutinin transfected in HEK293T cells assessed as induction of hemagglutinin degradation at 50 uM incubated for 12 hrs by Western blot analysis relative to control; type: cell-based
[6] = biological target: von Hippel-Lindau disease tumor suppressor (Homo sapiens, UniProt P40337); experiment: Binding affinity to human recombinant VHL assessed as dissociation constant by SPR assay
Chain of von Hippel-Lindau disease tumor suppressor (P40337 whole entry): as the sequence (P40337 whole entry, looked up) above

Hemagglutinin = Hemagglutinin (Influenza A virus, UniProt B4URE7); experiment: Binding affinity to recombinant influenza A hemagglutinin assessed as dissociation constant by SPR assay
Influenza A virus [7] = experiment: Antiviral activity against Influenza A A/WSN/33 (H1N1) infected in dog MDCK cells assessed as inhibition of viral induced cytopathic effect incubated for 40 hrs by CellTiter-Glo assay; type: functional, organism-based
HEK-293T = experiment: Cytotoxicity against HEK293T cells assessed as reduction in cell viability at 50 uM incubated for 36 hrs by Celltiter-Glo assay; type: toxicity, cell-based; conditions: human
[8] = biological target: T1, von Hippel-Lindau disease tumor suppressor/Hemagglutinin; experiment: Protac activity at VHL (unknown origin)/influenza A hemagglutinin transfected in HEK293T cells assessed as degradation of hemagglutinin at 0.39 to 25 uM incubated for 10 hrs by Western blot analysis; type: cell-based; conditions: dose 0.39-25 µM
Target sequence in this assay (P03452 whole entry, looked up): as the sequence (P03452 whole entry, looked up) above
Target sequence in this assay (P40337 whole entry, looked up): as the sequence (P40337 whole entry, looked up) above

[9] = biological target: T1, von Hippel-Lindau disease tumor suppressor/Hemagglutinin; experiment: Protac activity at VHL (unknown origin)/influenza A hemagglutinin transfected in HEK293T cells assessed as degradation of hemagglutinin incubated for 10 hrs by Western blot analysis; type: cell-based
[10] = biological target: T1, von Hippel-Lindau disease tumor suppressor/Hemagglutinin; experiment: Protac activity at VHL (unknown origin)/influenza A hemagglutinin transfected in HEK293T cells assessed as accumulation of ubiquitinated hemagglutinin at 20 uM preincubated for 4 hrs followed by proteosome inhibitor, MG-132 addition and measured after 4 hrs by Immunoprecipitation analysis; type: cell-based
Target sequence in this assay (P03452 whole entry, looked up): as the sequence (P03452 whole entry, looked up) above
Target sequence in this assay (P40337 whole entry, looked up): as the sequence (P40337 whole entry, looked up) above

[11] = Cmax in BALB/c mouse infected with Influenza A A/WSN/33 (H1N1) virus at 10 mg/kg, iv measured after 24 hrs by LC-MS analysis; type: ADME, organism-based; set-up: time 24 hrs, dose 10 mg/kg, route iv; conditions: in vivo
Influenza A virus [12] = experiment: Antiviral activity against Influenza A A/WSN/33 (H1N1) infected in HEK293T cells incubated for 12 hrs; type: functional, organism-based; conditions: HEK-293T
[13] = Acute toxicity in BALB/c mouse infected with Influenza A A/WSN/33 (H1N1) virus assessed as mortality at 10 to 20 mg/kg/day, iv administered for 5 days starting from 2 hrs post infection and measured daily for 14 days; type: organism-based; conditions: in vivo, 336 h, dose 10-20 mg/kg/day, time 14 day
[14] = Tmax in BALB/c mouse infected with Influenza A A/WSN/33 (H1N1) virus at 50 mg/kg, po administered as single dose measured after 24 hrs by LC-MS analysis; type: ADME, organism-based; conditions: in vivo
Influenza A virus [15] = experiment: Antiviral activity against Influenza A A/Aichi/2/68 (H3N2) infected in HEK293T cells incubated for 12 hrs; type: functional, organism-based; conditions: HEK-293T
Influenza A virus [16] = experiment: Antiviral activity against Influenza A A/WSN/33 (H1N1) infected in BALB/c mouse assessed as reduction in virus induced lung lesion at 10 mg/kg, iv measured on day 4 by histopathological staining based analysis; type: functional, organism-based; conditions: time 4.0 day
[17] = Elimination half life in BALB/c mouse infected with Influenza A A/WSN/33 (H1N1) virus at 10 mg/kg, iv measured after 24 hrs by LC-MS analysis; type: ADME, organism-based; conditions: in vivo, read-out: LambdaZ (converted)
[18] = AUCinfinity in BALB/c mouse infected with Influenza A A/WSN/33 (H1N1) virus at 50 mg/kg, po measured after 24 hrs by LC-MS analysis; type: ADME, organism-based; set-up: time 24 hrs, dose 50 mg/kg, route po; conditions: in vivo
[19] = AUCinfinity in BALB/c mouse infected with Influenza A A/WSN/33 (H1N1) virus at 10 mg/kg, iv measured after 24 hrs by LC-MS analysis; type: ADME, organism-based; set-up: dose 10 mg/kg, time 24 hrs, route iv; conditions: in vivo
[20] = biological target: T1, von Hippel-Lindau disease tumor suppressor/Hemagglutinin; experiment: Protac activity at VHL (unknown origin)/influenza A hemagglutinin transfected in HEK293T cells assessed as degradation of hemagglutinin incubated for 7 to 10 hrs by Western blot analysis; type: cell-based; conditions: time 7-10 hrs
Target sequence in this assay (P03452 whole entry, looked up): as the sequence (P03452 whole entry, looked up) above
Target sequence in this assay (P40337 whole entry, looked up): as the sequence (P40337 whole entry, looked up) above

Influenza A virus [21] = experiment: Antiviral activity against Influenza A A/WSN/33 (H1N1) infected in BALB/c mouse assessed as plaque reduction at 10 to 20 mg/kg/day, iv incubated for 4 to 16 days (reference value: 2.7x10^6 PFU/g); type: functional; conditions: dose 10-20 mg/kg/day, time 4-16 day
Influenza A virus [22] = experiment: Antiviral activity against Influenza A A/California/08/2009 (H1N1) infected in HEK293T cells incubated for 12 hrs; type: functional, organism-based; conditions: HEK-293T
[23] = MRT in BALB/c mouse infected with Influenza A A/WSN/33 (H1N1) virus at 10 mg/kg, iv measured after 24 hrs by LC-MS analysis; type: ADME, organism-based; conditions: in vivo
Influenza A virus [24] = experiment: Antiviral activity against Influenza A A/WSN/33 (H1N1) infected in BALB/c mouse assessed as reduction in virus induced inflammation at 10 mg/kg, iv measured on day 4 by histopathological staining based analysis; type: functional, organism-based; conditions: time 4.0 day
Influenza A virus [25] = experiment: Antiviral activity against influenza A A/WSN/33 (H1N1) infected in HEK293T cells assessed as reduction in hemagglutinin level at virion replication and release stage at 25 uM mesured after 3 to 9 hrs by immunofluorescence based confocal microscopic analysis; type: functional, organism-based; conditions: time 3-9 hrs
[26] = biological target: T1, von Hippel-Lindau disease tumor suppressor/Hemagglutinin; experiment: Protac activity at VHL (unknown origin)/influenza A hemagglutinin transfected in HEK293T cells assessed as reduction in hemagglutinin level at 10 uM by immunoblotting analysis relative to control; type: cell-based; set-up: scale not given: the % may be the effect or the level left
[27] = Oral bioavailability in BALB/c mouse infected with Influenza A A/WSN/33 (H1N1) virus at 50 mg/kg measured after 24 hrs by LC-MS analysis; type: ADME, organism-based; conditions: in vivo
Influenza B virus = experiment: Antiviral activity against Influenza B B/Florida/4/2006 infected in HEK293T cells incubated for 12 hrs; type: functional, organism-based; conditions: B/Florida/4/2006, HEK-293T
[28] = Acute toxicity in BALB/c mouse infected with Influenza A A/WSN/33 (H1N1) virus assessed as decrease in body weight at 10 to 20 mg/kg/day, iv administered for 5 days starting from 2 hrs post infection and measured daily for 14 days; type: organism-based; conditions: in vivo, 336 h, dose 10-20 mg/kg/day, time 14 day
[29] = MRT in BALB/c mouse infected with Influenza A A/WSN/33 (H1N1) virus at 50 mg/kg, po measured after 24 hrs by LC-MS analysis; type: ADME, organism-based; conditions: in vivo
[30] = Elimination half life in BALB/c mouse infected with Influenza A A/WSN/33 (H1N1) virus at 50 mg/kg, po measured after 24 hrs by LC-MS analysis; type: ADME, organism-based; conditions: in vivo, read-out: LambdaZ (converted)
Influenza A virus [31] = experiment: Antiviral activity against Influenza A A/WSN/33 (H1N1) infected in BALB/c mouse assessed as recovery of body weight at 10 to 20 mg/kg/day, iv administered for 5 days starting from 2 hrs post infection and measured daily for 14 days; type: functional, organism-based; conditions: dose 10-20 mg/kg/day, time 14.0 day
[32] = Cytotoxicity against HEK293T cells assessed as cell viability at 50 uM incubated for 36 hrs by Celltiter-Glo assay relative to control; type: toxicity, cell-based, HEK-293T; conditions: human, read-out: Activity
Influenza A virus [33] = experiment: Antiviral activity against Influenza A A/WSN/33 (H1N1) infected in BALB/c mouse assessed as fold reduction plaque count at 10 to 20 mg/kg/day, iv incubated for 4 to 16 days relative to control; type: functional; conditions: dose 10-20 mg/kg/day, time 4-16 day
[34] = Cmax in BALB/c mouse infected with Influenza A A/WSN/33 (H1N1) virus at 50 mg/kg, po measured after 24 hrs by LC-MS analysis; type: ADME, organism-based; set-up: time 24 hrs, dose 50 mg/kg, route po; conditions: in vivo

SMILES: Cc1ncsc1-c1ccc(CNC(=O)[C@@H]2C[C@@H](O)CN2C(=O)[C@@H](NC(=O)CCOCCNC(=O)[C@]23CCC(C)(C)C[C@H]2C2=CC[C@@H]4[C@@]5(C)CC[C@H](O)C(C)(C)[C@@H]5CC[C@@]4(C)[C@]2(C)CC3)C(C)(C)C)cc1
- Activity [1]: 50%
- Activity [2]: Dde
- Activity [3]: Dde

SMILES: CC1(C)CC[C@]2(C(=O)NCCOCCOCCOCCNc3cccc4c3C(=O)N(C3CCC(=O)NC3=O)C4=O)CC[C@]3(C)C(=CC[C@@H]4[C@@]5(C)CC[C@H](O)C(C)(C)[C@@H]5CC[C@]43C)[C@@H]2C1 (some centres undefined)
- Activity [4]: > 50%
- Activity [5]: 20%

SMILES: Cc1ncsc1-c1ccc(CNC(=O)[C@@H]2CCCN2C(=O)[C@@H](N)C(C)(C)C)cc1
- Kd [6]: 4.97 µM

SMILES: Cc1ncsc1-c1ccc(CNC(=O)[C@@H]2C[C@@H](O)CN2C(=O)[C@@H](NC(=O)CCOCCOCCNC(=O)[C@]23CCC(C)(C)C[C@H]2C2=CC[C@@H]4[C@@]5(C)CC[C@H](O)C(C)(C)[C@@H]5CC[C@@]4(C)[C@]2(C)CC3)C(C)(C)C)cc1
- Activity [1]: 50%
- Activity [2]: Dde
- Activity [3]: Dde

SMILES: CC1(C)CC[C@]2(C(=O)O)CC[C@]3(C)C(=CC[C@@H]4[C@@]5(C)CC[C@H](O)C(C)(C)[C@@H]5CC[C@]43C)[C@@H]2C1 [OLEANOLIC_ACID]
- Kd (Hemagglutinin): 10.9 µM
- IC50 (Influenza A virus [7]): > 200 µM

SMILES: Cc1ncsc1-c1ccc(CNC(=O)[C@@H]2C[C@@H](O)CN2C(=O)[C@@H](NC(=O)CCOCCOCCOCCOCCOCCNC(=O)[C@]23CCC(C)(C)C[C@H]2C2=CC[C@@H]4[C@@]5(C)CC[C@H](O)C(C)(C)[C@@H]5CC[C@@]4(C)[C@]2(C)CC3)C(C)(C)C)cc1
- Activity (HEK-293T): Toxic

SMILES: Cc1ncsc1-c1ccc(CNC(=O)[C@@H]2C[C@@H](O)CN2C(=O)[C@@H](NC(=O)CCOCCOCCOCCOCCOCCOCCOCCNC(=O)[C@]23CCC(C)(C)C[C@H]2C2=CC[C@@H]4[C@@]5(C)CC[C@H](O)C(C)(C)[C@@H]5CC[C@@]4(C)[C@]2(C)CC3)C(C)(C)C)cc1
- Activity (HEK-293T): Toxic
- Activity [8]: Active
- Activity [9]: Active

SMILES: Cc1ncsc1-c1ccc(CNC(=O)[C@@H]2CCCN2C(=O)[C@@H](NC(=O)CCOCCOCCOCCNC(=O)[C@]23CCC(C)(C)C[C@H]2C2=CC[C@@H]4[C@@]5(C)CC[C@H](O)C(C)(C)[C@@H]5CC[C@@]4(C)[C@]2(C)CC3)C(C)(C)C)cc1
- Activity (HEK-293T): 85%
- Activity [10]: Active
- Kd [6]: 9.25 µM
- Activity [1]: 50%
- Cmax [11]: 2070 ng/mL
- Activity [2]: Dde
- EC50 (Influenza A virus [12]): 4.53 µM
- Activity [13]: Non-Toxic
- Tmax [14]: 0.5 h
- Kd (Hemagglutinin): 3.18 µM
- EC50 (Influenza A virus [15]): 8.98 µM
- Activity (Influenza A virus [16]): Active
- half-life [17]: 2.87 h
- AUC(0-inf) [18]: 2550 ng·h/mL
- AUC(0-inf) [19]: 7450 ng·h/mL
- Activity [20]: Active
- Activity (Influenza A virus [21]): 8.1 10^5PFU/g
- EC50 (Influenza A virus [22]): 5.98 µM
- MRT [23]: 0.98 h
- Activity (Influenza A virus [24]): Active
- Activity (Influenza A virus [25]): Active
- Activity [26]: 60%
- bioavailability [27]: 6.8%
- EC50 (Influenza B virus): > 25 µM
- Activity [3]: Dde
- DC50 [9]: 1.44 µM
- Activity [28]: Non-Toxic
- MRT [29]: 1.56 h
- half-life [30]: 2.63 h
- Activity (Influenza A virus [31]): Active
- viability at 36 h, 50 µM [32]: > 85%
- fold change (FC) (Influenza A virus [33]): 3.5
- Cmax [34]: 2070 ng/mL

SMILES: Cc1ncsc1-c1ccc(CNC(=O)[C@@H]2C[C@@H](O)CN2C(=O)[C@@H](NC(=O)CCOCCOCCOCCOCCOCCOCCOCCOCCOCCOCCNC(=O)[C@]23CCC(C)(C)C[C@H]2C2=CC[C@@H]4[C@@]5(C)CC[C@H](O)C(C)(C)[C@@H]5CC[C@@]4(C)[C@]2(C)CC3)C(C)(C)C)cc1
- Activity (HEK-293T): Toxic
